Data from patent US20030186339A1, “Individualization of therapy with antibiotic agents” (McGill University, priority 2001, published 2003).
Read-outs that look alike come from different tables or passages of the source. Marks after values point to notes of the source that are not given here.

Assays:
AAMU-Ab = assay: Competitive antigen ELISA, cross-reactivity of AAMU-Ab; assay type: binding, rabbit; settings: for % Cross-Reaction AAMU-Ab: competitive antigen ELISA, 0 = absence of inhibition or inhibition no higher than 40% at highest concentration tested (5×10^−3 M)
Method: (§1) Competitive Antigen ELISA
(§2) Buffers and water without additives are filtered through millipore filters and kept for 1 week. BSA, antibodies, Tween™ 20 and horse radish peroxidase conjugates are added to these buffers and water just prior to use. Urine samples are usually collected 4 hours after drinking a cup of coffee (instant or brewed with approximately 100 mg of caffeine per cup) and stored at −80° C. The urine samples are diluted 10 times with sodium phosphate buffer (620 mosm, pH 7.50) and are subsequently diluted with water to give concentrations of AAMU and 1X no higher than 3×10^−6 M in the ELISA. All the pipettings are done with an eight-channel pipette, except those of the antibody and sample solutions. Starting with the last well, 100 μL of a carbonate buffer (100 mM, pH 9.6) containing 2.5 μg mL-1 antibodies are added to each well. After 90 min. at room temperature, the wells are washed three times with […] of TPB: isotonic sodium phosphate buffer (310 mosm, pH 7.50) containing 0.05% Tween™ 20.
(§3) After the initial wash, unoccupied sites are blocked by incubation for 90 min. at room temperature with 100 μL TBP containing 3% BSA. The wells are washed four times with 100 μL TPB. […] The microplate is gently shaken with an orbital shaker at room temperature for 3-4 hours. The wells are washed three times with 100 μL TPB containing 1% BSA and three times with water containing 0.05% Tween™ 20. To the washed plate is added 150 μL of a substrate buffer composed of citric acid (25 mM) and sodium phosphate dibasic buffer (50 mM, pH 5.0) containing 0.06% hydrogen peroxide and 0.04% o-phenylenediamine hydrochloride.
(§4) Buffers and water without additives were filtered through millipore filters and kept for 1 week. BSA, antibodies, Tween™ 20 and horse radish peroxidase conjugates were added to these buffers and water just prior to use. Urine samples were usually collected 4 hours after drinking a cup of coffee (instant or brewed with approximately 100 mg of caffeine per cup) and stored at −80° C. They were diluted 10 times with sodium phosphate buffer (620 mosm, pH 7.50) and were subsequently diluted with water to give concentrations of AAMU and 1X no higher than 3×10^−6 M in the ELISA. All the pipettings were done with an eight-channel pipette, except those of the antibody and sample solutions. Starting with the last well, 100 μL of a carbonate buffer (100 mM, pH 9.6) containing 2.5 μg mL-1 antibodies was pipetted. After 90 min. at room temperature, the wells were washed three times with 100 μL of TPB: isotonic sodium phosphate buffer (310 mosm, pH 7.50) containing 0.05% Tween™ 20.
(§5) After the initial wash, unoccupied sites were blocked by incubation for 90 min. at room temperature with […] TBP containing 3% BSA. The wells were washed four times with 100 μL TPB. […] The microplate was gently shaken with an orbital shaker at room temperature for 3-4 hours. The wells were washed three times with 100 μL with TPB containing 1% BSA and three times with water containing 0.05% Tween™ 20. To the washed plate was added 150 μL of a substrate buffer composed of citric acid (25 mM) and sodium phosphate dibasic buffer (50 mM, pH 5.0) containing 0.06% hydrogen peroxide and 0.04% o-phenylenediamine hydrochloride. After 20 min. at room temperature with shaking, the reaction was stopped with 50 μL of 2.5 N HCl.
(§6) The cross reactivities of AAMU-Ab and 1X-Ab were tested using a wide variety of caffeine metabolites and structural analogs (Table 2 below).

1X-Ab = assay: Competitive antigen ELISA, cross-reactivity of 1X-Ab; assay type: binding, rabbit; settings: for % Cross-Reaction 1X-Ab: competitive antigen ELISA, 0 = absence of inhibition or inhibition no higher than 40% at highest concentration tested (5×10^−3 M)
Method: as §1, §2, §3, §4, §5, §6

[1] = cited from earlier work
S. pneumoniae = settings: once a day for 10 days, acute bacterial exacerbation of chronic bronchitis; cited from earlier work
[2] = healthy volunteers; cited from earlier work
[3] = cited from earlier work; remark: listed apart in the source

| Structure (SMILES) | % Cross-Reaction AAMU-Ab (AAMU-Ab) | % Cross-Reaction 1X-Ab (1X-Ab) [%] | other results |
| --- | --- | --- | --- |
| Cn1c(=O)c2c(ncn2C)n(C)c1=O [1,3,7-Trimethyl Xanthine (Caffeine), 1,3,7-Trimethyl Xanthine] | 0% | 0 | – |
| Cn1c(=O)c2[nH]cnc2n(C)c1=O [1,3-Dimethyl Xanthine (Theophylline), 1,3-Dimethyl Xanthine] | 0% | 0.2 | – |
| Cn1c(=O)[nH]c2ncn(C)c2c1=O [1,7-Dimethyl Xanthine (Paraxanthine), 1,7-Dimethyl Xanthine] | 0% | 0.5 | – |
| Cn1c(=O)[nH]c2[nH]c(=O)n(C)c2c1=O [1,7-Dimethyluric acid] | 0% | 0 | – |
| Cn1c(=O)[nH]c2nc[nH]c2c1=O [1-Methyl Xanthine (1X), 1-Methyl Xanthine] | 0% | 100 | IC50 (1X-Ab; read-out: concentration required for 50% inhibition in the competitive antigen ELISA, 1X-Ab, 1X-HRP conjugate): 10 µM |
| Cn1c(=O)[nH]c2[nH]c(=O)[nH]c2c1=O [1-Methyluric acid] | 0% | 11 | – |
| Cn1cnc2c1c(=O)[nH]c(=O)n2C [3,7-Dimethyl Xanthine (Theobromine), 3,7-Dimethyl Xanthine] | 0% | 0 | – |
| Cn1c(=O)[nH]c(=O)c2[nH]cnc21 [3-Methyl Xanthine] | 0% | 0 | – |
| CC(=O)Nc1c(N)n(C)c(=O)n(C)c1=O [5-Acetamino-6-amino-1,3-dimethyluracil] | 0% | 0 | – |
| CC(=O)Nc1c(N)n(C)c(=O)[nH]c1=O [5-Acetamino-6-amino-1-methyluracil] | 100% | 0 | IC50 (AAMU-Ab; read-out: concentration required for 50% inhibition in the competitive antigen ELISA, AAMU-Ab, AAMU-HRP conjugate): 1.5 µM |
| CC(=O)Nc1c(N)[nH]c(=O)[nH]c1=O [5-Acetamino-6-amino-uracil] | 0.6% | 0 | – |
| Cn1cnc2[nH]c(=O)[nH]c(=O)c21 [7-Methyl Xanthine] | 0% | 0 | – |
| Cc1nc2[nH]c(=O)[nH]c(=O)c2[nH]1 [8-Methyl Xanthine] | 0% | 0 | – |
| CC1(C)S[C@@H]2[C@H](NC(=O)Cc3ccccc3)C(=O)N2[C@H]1C(=O)O.CC1(C)S[C@@H]2[C@H](NC(=O)Cc3ccccc3)C(=O)N2[C@H]1C(=O)O.c1ccc(CNCCNCc2ccccc2)cc1 [Benzathine penicillin G] | – | – | duration of low sustained serum levels of penicillin G ([1]; human, in vivo): 1-3 weeks |
| O=C(N[C@H](CO)[C@H](O)c1ccc([N+](=O)[O-])cc1)C(Cl)Cl [Chloramphenicol] | – | – | CSF concentrations as % of serum levels ([1]; human, in vivo): 30-50% |
| C[C@H]1c2cccc(O)c2C(=O)C2=C(O)[C@]3(O)C(=O)C(C(N)=O)=C(O)[C@@H](N(C)C)[C@@H]3[C@@H](O)[C@@H]21 [Doxycycline] | – | – | serum half-life ([1]; human, in vivo): 17 to 20 h |
| Cc1c(F)c(N2CCNC(C)C2)cc2c1c(=O)c(C(=O)O)cn2C1CC1 (stereo not drawn) [Grepafloxacin, grepafloxacin] | – | – | effectiveness against S. pneumoniae, 400 mg per day vs 600 mg per day (S. pneumoniae): may be less effective; effect on QTc interval [2]: Prolongation of the QTc Intervals has been observed; time to peak plasma drug concentration after dosing ([1]; human, in vivo): 2 to 3 h; time to steady state concentrations ([1]; once-a-day dosing): ≤ 7 days; bioavailability ([1]; oral): approximately 70% |
| Nc1nc2nc[nH]c2c(=O)[nH]1 [Guanine] | 0% | 0 | – |
| O=c1[nH]cnc2nc[nH]c12 [Hypoxanthine] | 0% | 0 | – |
| O=c1cc[nH]c(=O)[nH]1 [Uracil] | 0% | 0 | – |
| O=c1[nH]c(=O)c2[nH]c(=O)[nH]c2[nH]1 [Uric acid] | 0% | 0 | – |
| O=c1[nH]c(=O)c2[nH]cnc2[nH]1 [Xanthine] | 0^a % | 0 | – |
| Nc1ccc(S(=O)(=O)c2ccc(N)cc2)cc1 [dapsone] | – | – | adverse reactions to dapsone ([3]; fast acetylators): 17%; adverse reactions to dapsone ([3]; slow acetylators): 46% |
